The text below walks through data of PubChem BioAssay AID1628 (Sanford-Burnham Center for Chemical Genomics, 2009).

The test system of this assay is MIN6 insulin promoter GFP reporter, high-content imaging. The assay is described as follows: insulin promoter down-regulators in MIN6 cells, imaging, high-content screening, mouse beta cells (AID 1628).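 Further: potency for lowering insulin promoter GFP signal so compounds are inhibitors.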

SMILES strings stand for the structures. Several values for one entry are separate records, joined by “and”; a condition that tells them apart may be missing. Equal entries are not always repeated.

By IC50 is commonly meant the concentration that inhibits the measured activity by half. Turning to `CN(C)c1ccnc2c[cH-]cc12.[Fe].c1ccc(-[c-]2[c-](-c3ccccc3)[c-](-c3ccccc3)[c-](-c3ccccc3)[c-]2-c2ccccc2)cc1` (stereo unspecified), the IC50 was 2630 nM and 1620 nM.
